In patent US7851474B2, “Dipiperazinyl ketones and related analogues” (Neurogen Corporation, priority 2005, dated 2010):

biological target: T1, chimeric human H3 receptor (Homo sapiens, UniProt Q9Y5N1, E19D); assay: Chimeric human H3 receptor GTP binding assay (agonist-stimulated GTP-gamma35S binding, Example 7); type: biochemical; settings: Table II; assay of Example 7; "*" in Ki; read-out: Ki
T1 construct: made in house; host or cells: Sf9 insect cells (baculovirus infection); P2 membrane preparation
Procedure, shortened: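 IC50 values come from non-linear regression of dose-response curves of filter-bound GTP-gamma^35S, counted by scintillation. Membranes were from infected Sf9 cells carrying receptor plus G-protein subunits, 35 μg/tube, with 10 μM GDP present.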

T1 sequence (Q9Y5N1 with tags, fused parts or gaps E19D): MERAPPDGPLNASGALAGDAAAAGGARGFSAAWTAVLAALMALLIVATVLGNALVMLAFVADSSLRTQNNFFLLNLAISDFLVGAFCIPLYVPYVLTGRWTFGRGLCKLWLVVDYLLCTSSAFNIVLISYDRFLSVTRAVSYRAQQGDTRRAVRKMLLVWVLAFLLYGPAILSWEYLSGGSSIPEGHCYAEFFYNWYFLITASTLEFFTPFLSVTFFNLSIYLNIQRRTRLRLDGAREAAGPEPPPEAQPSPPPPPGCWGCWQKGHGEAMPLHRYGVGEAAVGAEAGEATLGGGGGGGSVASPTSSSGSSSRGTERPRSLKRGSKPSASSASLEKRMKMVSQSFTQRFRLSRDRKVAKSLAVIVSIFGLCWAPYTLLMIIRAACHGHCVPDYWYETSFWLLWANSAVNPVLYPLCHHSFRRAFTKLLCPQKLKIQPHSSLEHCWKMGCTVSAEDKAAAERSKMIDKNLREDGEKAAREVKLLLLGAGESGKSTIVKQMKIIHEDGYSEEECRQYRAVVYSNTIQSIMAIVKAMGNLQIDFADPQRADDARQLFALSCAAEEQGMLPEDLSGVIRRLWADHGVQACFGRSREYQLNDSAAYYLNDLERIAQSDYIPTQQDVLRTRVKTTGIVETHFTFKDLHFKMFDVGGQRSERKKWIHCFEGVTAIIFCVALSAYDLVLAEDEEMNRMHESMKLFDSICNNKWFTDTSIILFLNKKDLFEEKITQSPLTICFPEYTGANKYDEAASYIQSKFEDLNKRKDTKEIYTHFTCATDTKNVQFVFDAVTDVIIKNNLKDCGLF

Ki, < 1 µM:
CCN(CC)C(=O)c1ccc(N2CCN(CC(=O)N3CCN(C4CCC4)CC3)CC2)cc1 [Compound 1125, 4-{4-[2-(4-cyclobutylpiperazin-1-yl)-2-oxoethyl]piperazin-1-yl}-N,N-diethylbenzamide]
CCN(C(=O)c1ccc(N2CCN(CC(=O)N3CCN(C4CCC4)CC3)CC2)cc1)C(C)C [Compound 1126, 4-{4-[2-(4-cyclobutylpiperazin-1-yl)-2-oxoethyl]piperazin-1-yl}-N-ethyl-N-isopropylbenzamide]
CC(C)N(C)C(=O)c1ccc(N2CCN(CC(=O)N3CCN(C4CCC4)CC3)CC2)cc1 [Compound 1127, 4-{4-[2-(4-cyclobutylpiperazin-1-yl)-2-oxoethyl]piperazin-1-yl}-N-isopropyl-N-methylbenzamide]
CN(C(=O)c1ccc(N2CCN(CC(=O)N3CCN(C4CCC4)CC3)CC2)cc1)C1CCCCC1 [Compound 1128, 4-{4-[2-(4-cyclobutylpiperazin-1-yl)-2-oxoethyl]piperazin-1-yl}-N-cyclohexyl-N-methylbenzamide]
CCN(C(=O)c1ccc(N2CCN(CC(=O)N3CCN(C4CCC4)CC3)CC2)cc1)C1CCCCC1 [Compound 1129, 4-{4-[2-(4-cyclobutylpiperazin-1-yl)-2-oxoethyl]piperazin-1-yl}-N-cyclohexyl-N-ethylbenzamide]
COCCN(C(=O)c1ccc(N2CCN(CC(=O)N3CCN(C4CCC4)CC3)CC2)cc1)C(C)C [Compound 1130, 4-{4-[2-(4-cyclobutylpiperazin-1-yl)-2-oxoethyl]piperazin-1-yl}-N-isopropyl-N-(2-methoxyethyl)benzamide]
CCC(C)CNC(=O)c1ccc(N2CCN(CC(=O)N3CCN(C4CCC4)CC3)CC2)cc1 (stereo not drawn) [Compound 1131, 4-{4-[2-(4-cyclobutylpiperazin-1-yl)-2-oxoethyl]piperazin-1-yl}-N-(2-methylbutyl)benzamide]
CCCNC(=O)c1ccc(N2CCN(CC(=O)N3CCN(C4CCC4)CC3)CC2)cc1 [Compound 1132, 4-{4-[2-(4-cyclobutylpiperazin-1-yl)-2-oxoethyl]piperazin-1-yl}-N-propylbenzamide]
O=C(NCC1CC1)c1ccc(N2CCN(CC(=O)N3CCN(C4CCC4)CC3)CC2)cc1 [Compound 1133, 4-{4-[2-(4-cyclobutylpiperazin-1-yl)-2-oxoethyl]piperazin-1-yl}-N-(cyclopropylmethyl) benzamide]
CC(C)CNC(=O)c1ccc(N2CCN(CC(=O)N3CCN(C4CCC4)CC3)CC2)cc1 [Compound 1134, 4-{4-[2-(4-cyclobutylpiperazin-1-yl)-2-oxoethyl]piperazin-1-yl}-N-isobutylbenzamide]
CCCCCNC(=O)c1ccc(N2CCN(CC(=O)N3CCN(C4CCC4)CC3)CC2)cc1 [Compound 1135, 4-{4-[2-(4-cyclobutylpiperazin-1-yl)-2-oxoethyl]piperazin-1-yl}-N-pentylbenzamide]
CC(C)CCNC(=O)c1ccc(N2CCN(CC(=O)N3CCN(C4CCC4)CC3)CC2)cc1 [Compound 1136, 4-{4-[2-(4-cyclobutylpiperazin-1-yl)-2-oxoethyl]piperazin-1-yl}-N-(3-methylbutyl)benzamide]
O=C(NCC(F)(F)F)c1ccc(N2CCN(CC(=O)N3CCN(C4CCC4)CC3)CC2)cc1 [Compound 1137, 4-{4-[2-(4-cyclobutylpiperazin-1-yl)-2-oxoethyl]piperazin-1-yl}-N-(2,2,2-trifluoroethyl)benzamide]

same assay, conditions: assay of Example 7; "*" in Ki of Table II; read-out: Ki

Ki, < 1 µM:
O=C(NC1CC1)c1ccc(N2CCN(CC(=O)N3CCN(C4CCC4)CC3)CC2)cc1 [Compound 1138, 4-{4-[2-(4-cyclobutylpiperazin-1-yl)-2-oxoethyl]piperazin-1-yl}-N-cyclopropylbenzamide]
O=C(NC1CCCCC1)c1ccc(N2CCN(CC(=O)N3CCN(C4CCC4)CC3)CC2)cc1 [Compound 1139, 4-{4-[2-(4-cyclobutylpiperazin-1-yl)-2-oxoethyl]piperazin-1-yl}-N-cyclohexylbenzamide]
CC(C)NC(=O)c1ccc(N2CCN(CC(=O)N3CCN(C4CCC4)CC3)CC2)cc1 [Compound 1140, 4-{4-[2-(4-cyclobutylpiperazin-1-yl)-2-oxoethyl]piperazin-1-yl}-N-isopropylbenzamide]
O=C(NC1CCCC1)c1ccc(N2CCN(CC(=O)N3CCN(C4CCC4)CC3)CC2)cc1 [Compound 1141, 4-{4-[2-(4-cyclobutylpiperazin-1-yl)-2-oxoethyl]piperazin-1-yl}-N-cyclopentylbenzamide]
CCCC(C)NC(=O)c1ccc(N2CCN(CC(=O)N3CCN(C4CCC4)CC3)CC2)cc1 (stereo not drawn) [Compound 1142, 4-{4-[2-(4-cyclobutylpiperazin-1-yl)-2-oxoethyl]piperazin-1-yl}-N-(1-methylbutyl)benzamide]
O=C(NC1CCCCCC1)c1ccc(N2CCN(CC(=O)N3CCN(C4CCC4)CC3)CC2)cc1 [Compound 1143, 4-{4-[2-(4-cyclobutylpiperazin-1-yl)-2-oxoethyl]piperazin-1-yl}-N-cycloheptylbenzamide]
O=C(NCC1CCCCC1)c1ccc(N2CCN(CC(=O)N3CCN(C4CCC4)CC3)CC2)cc1 [Compound 1144, 4-{4-[2-(4-cyclobutylpiperazin-1-yl)-2-oxoethyl]piperazin-1-yl}-N-(cyclohexylmethyl) benzamide]
CC(C)(C)CNC(=O)c1ccc(N2CCN(CC(=O)N3CCN(C4CCC4)CC3)CC2)cc1 [Compound 1145, 4-{4-[2-(4-cyclobutylpiperazin-1-yl)-2-oxoethyl]piperazin-1-yl}-N-(2,2-dimethylpropyl) benzamide]
CCC(CC)CNC(=O)c1ccc(N2CCN(CC(=O)N3CCN(C4CCC4)CC3)CC2)cc1 [Compound 1146, 4-{4-[2-(4-cyclobutylpiperazin-1-yl)-2-oxoethyl]piperazin-1-yl}-N-(2-ethylbutyl)benzamide]
N#Cc1ccc(N2CCN(CC(=O)N3CCN(C4CCCCC4)CC3)CC2)cc1 [Compound 1147, 4-{4-[2-(4-cyclohexylpiperazin-1-yl)-2-oxoethyl]piperazin-1-yl}benzonitrile]
N#Cc1ccc(N2CCN(CC(=O)N3CCN(C4CCCC4)CC3)CC2)cc1 [Compound 1148, 4-{4-[2-(4-cyclopentylpiperazin-1-yl)-2-oxoethyl]piperazin-1-yl}benzonitrile]
CC(C)N1CCN(C(=O)CN2CCN(c3ccc(C#N)cc3)CC2)CC1 [Compound 1149, 4-{4-[2-(4-isopropylpiperazin-1-yl)-2-oxoethyl]piperazin-1-yl}benzonitrile]
CCC(C)N1CCN(C(=O)CN2CCN(c3ccc(C#N)cc3)CC2)CC1 (stereo not drawn) [Compound 1150, 4-{4-[2-(4-sec-butylpiperazin-1-yl)-2-oxoethyl]piperazin-1-yl}benzonitrile]
CC(C)(C)c1ccc(C(=O)NC2CCN(CC(=O)N3CCN(C4CCC4)CC3)C2)cc1 (stereo not drawn) [Compound 1152, 4-tert-butyl-N-{1-[2-(4-cyclobutylpiperazin-1-yl)-2-oxoethyl]pyrrolidin-3-yl}benzamide]
O=C(CN1CCN(c2ccc(-c3cncnc3)cc2)CC1)N1CCN(C2CCC2)CC1 [Compound 1154, 5-(4-{4-[2-(4-cyclobutylpiperazin-1-yl)-2-oxoethyl]piperazin-1-yl}phenyl)pyrimidine]
CN1Cc2cc(N3CCN(CC(=O)N4CCN(C5CCC5)CC4)CC3)ccc2C1=O [Compound 1155, 5-{4-[2-(4-cyclobutylpiperazin-1-yl)-2-oxoethyl]piperazin-1-yl}-2-methylisoindolin-1-one]
O=C1OCc2cc(N3CCN(CC(=O)N4CCN(C5CCC5)CC4)CC3)ccc21 [Compound 1156, 5-{4-[2-(4-cyclobutylpiperazin-1-yl)-2-oxoethyl]piperazin-1-yl}-2-benzofuran-1(3H)-one]
O=C1CCc2cc(N3CCN(CC(=O)N4CCN(C5CCC5)CC4)CC3)ccc21 [Compound 1157, 5-{4-[2-(4-cyclobutylpiperazin-1-yl)-2-oxoethyl]piperazin-1-yl}indan-1-one]
N#Cc1cnc(N2CCN(CC(=O)N3CCN(C4CCC4)CC3)CC2)cn1 [Compound 1158, 5-{4-[2-(4-cyclobutylpiperazin-1-yl)-2-oxoethyl]piperazin-1-yl}pyrazine-2-carbonitrile]
O=C1OCc2cc(N3CCN(CC(=O)N4CCN(C5CCCC5)CC4)CC3)ccc21 [Compound 1159, 5-{4-[2-(4-cyclopentylpiperazin-1-yl)-2-oxoethyl]piperazin-1-yl}-2-benzofuran-1(3H)-one]
O=C1CCc2cc(N3CCN(CC(=O)N4CCN(C5CCCC5)CC4)CC3)ccc21 [Compound 1160, 5-{4-[2-(4-cyclopentylpiperazin-1-yl)-2-oxoethyl]piperazin-1-yl}indan-1-one]
CC(C)CN1CCN(C(=O)CN2CCN(c3ccc4c(c3)COC4=O)CC2)CC1 [Compound 1161, 5-{4-[2-(4-isobutylpiperazin-1-yl)-2-oxoethyl]piperazin-1-yl}-2-benzofuran-1(3H)-one]
CC(C)CN1CCN(C(=O)CN2CCN(c3ccc4c(c3)CCC4=O)CC2)CC1 [Compound 1162, 5-{4-[2-(4-isobutylpiperazin-1-yl)-2-oxoethyl]piperazin-1-yl}indan-1-one]
